Assay results: ChEMBL document CHEMBL1147778, “Development and evaluation of a pharmacophore model for inhibitors of aldosterone synthase (CYP11B2)” (Bioorg Med Chem Lett, 2006)

Key:
[1] = molecular target: T1, Cytochrome P450 11B1, mitochondrial (Homo sapiens, UniProt P15538); test: Inhibition of human CYP11B1 expressed in V79 hamster fibroblasts
T1 sequence (P15538 whole entry): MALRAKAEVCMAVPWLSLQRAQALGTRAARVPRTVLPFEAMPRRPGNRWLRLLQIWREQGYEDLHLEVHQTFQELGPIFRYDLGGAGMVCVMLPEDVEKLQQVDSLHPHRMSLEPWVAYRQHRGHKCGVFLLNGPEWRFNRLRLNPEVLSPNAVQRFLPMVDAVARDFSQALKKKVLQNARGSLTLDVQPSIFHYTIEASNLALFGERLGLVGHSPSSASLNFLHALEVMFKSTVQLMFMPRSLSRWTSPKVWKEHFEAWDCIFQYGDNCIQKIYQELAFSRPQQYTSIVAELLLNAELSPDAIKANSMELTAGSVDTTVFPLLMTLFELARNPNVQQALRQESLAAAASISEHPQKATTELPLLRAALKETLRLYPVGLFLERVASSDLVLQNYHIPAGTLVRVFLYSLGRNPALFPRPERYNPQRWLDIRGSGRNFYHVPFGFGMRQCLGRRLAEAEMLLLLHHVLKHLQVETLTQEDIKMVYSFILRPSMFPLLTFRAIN

[2] = molecular target: T2, Cytochrome P450 11B2, mitochondrial (Homo sapiens, UniProt P19099); test: Inhibition of aldosterone synthase (CYP11B2) expressed in V79 hamster fibroblasts
T2 sequence (P19099 whole entry): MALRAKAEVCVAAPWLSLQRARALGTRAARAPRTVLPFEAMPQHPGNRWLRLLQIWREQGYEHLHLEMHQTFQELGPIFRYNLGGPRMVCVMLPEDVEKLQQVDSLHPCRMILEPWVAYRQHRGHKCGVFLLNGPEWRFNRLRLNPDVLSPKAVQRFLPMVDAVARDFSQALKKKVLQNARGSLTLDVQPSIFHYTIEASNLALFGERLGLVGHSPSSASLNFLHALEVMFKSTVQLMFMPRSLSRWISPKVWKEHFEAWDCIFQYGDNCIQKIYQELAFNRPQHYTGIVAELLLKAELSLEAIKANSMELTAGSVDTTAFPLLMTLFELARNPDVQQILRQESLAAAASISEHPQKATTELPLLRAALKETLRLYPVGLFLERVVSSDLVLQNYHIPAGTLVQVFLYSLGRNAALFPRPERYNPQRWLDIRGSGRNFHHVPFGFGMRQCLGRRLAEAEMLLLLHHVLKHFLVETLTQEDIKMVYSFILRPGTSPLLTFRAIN

Homo sapiens = organism: Homo sapiens; test: Selectivity for human CYP11B1 over CYP11B2

Structure (SMILES)	IC50 [1]	IC50 [2]	Ratio IC50 (Homo sapiens)
c1cncc(-c2ccc3c4c(cccc24)CC3)c1	2900 nM	14 nM	207
c1cncc(-c2ccc3cccc4c3c2CC4)c1			245
